1 compound from US7705013B2, “Use of canthin-6-one, plant extracts containing same and derivatives thereof in the treatment of trypanosomiases” (Institut de Recherche pour le Developpement, priority 2002, dated 2010) can be followed below.

Test [1] has as its system Trypanosoma cruzi. The test can be described thus: In vivo trial on Trypanosoma cruzi in the chronic phase, Balb/c mice: serological evaluation (ELISA). Conditions: 50 mg/kg/d orally. The source says:
(§1) The Balb/c-type mice are bred in the animal house of the Health Sciences Research Institute (IICS, Asuncion, Paraguay) and are 6 to 8 weeks old at the time of the experimental protocols. For this experimental protocol, the CL strain (Brener clone) of T. cruzi is used in the circulating form (trypomastigotes), and the strain is maintained in routine culture on an animal model by passage every 14 days. The animals are infected intraperitoneally with 1000 parasites. Under these experimental conditions, the parasites develop slowly; this strain produces a parasite peak 21 to 28 days after infection. The majority of the mice survive (70-80%) with slight deterioration of their general physical condition and with absent or subpatent parasitemia. Each week, the number of parasites is verified by taking a blood sample from the tail of the mouse.
(§2) For this long-duration experiment, the treatments begin 120 days after parasitic infection, when the parasitemia is subpatent in all the mice. The mice are then divided up into groups randomly. The treatments with benznidazole, the reference medicinal product, are administered at a concentration of 50 mg/kg or 200 mM/kg per day for 20 days, orally. Canthin-6-one is administered either orally or subcutaneously at a concentration of 5 mg/kg or 20 mM/kg per day for 20 days. A total dichloromethane extract of Zanthoxylum chiloperone var. angustifolium trunk bark is administered orally or subcutaneously at a concentration of 50 mg/kg per day for 20 days. For administration, the active principles are dissolved in 50 μl of a phosphate buffered saline (PBS) solution. The untreated and infected mice receive 50 μl of PBS.
• Weekly counting of the number of parasites circulating in the peripheral blood throughout the experiment, i.e. […] The serological evaluation is carried out using a Chagas ELISA assay (enzyme linked immunoassay) kit, IISC, Asuncion. The optical densities are measured with an ELISA plate reader (Titerek, Unistan, I). Statistical Studies:
(§3) The mean and the standard deviations of each group are calculated, and the differences between the groups are determined by means of the Student's test and the Kruskal-Wallis non-parametric analysis of variance test. The comparisons are carried out between the untreated group and the treated groups, P<0.05.
For orientation: An ELISA detects its analyte on a solid surface through an enzyme-linked reagent.

In test [2] the test system is Trypanosoma cruzi. Kind of test: In vivo trial on Trypanosoma cruzi in the acute phase, Balb/c mice: parasitological evaluation (parasites in peripheral blood). Conditions: for number of parasites ± standard deviation: 50 mg/kg oral, n = 8. The source says: (§4) Animals and parasites: The Balb/c-type mice are bred in the animal house of the Health Sciences Research Institute (IICS, Asuncion, Paraguay) and are 6 to 8 weeks old at the time of the experimental protocols.
(§5) For these trials, the CL strain (Brener clone) of T. cruzi is used in the circulating form of the parasite (trypomastigotes). The animals are infected intraperitoneally with 5000 parasites; this strain produces its parasite peak 21 to 25 days after infection. Each week, the number of parasites is verified by means of a blood sample taken from the tail of the mouse.
(§6) Infection and treatment: The treatments with benznidazole, the reference medicinal product, and canthin-6-one begin 11 days after parasitic infection, at a rate of 50 mg/kg or 200 mM/kg for benznidazole and at the concentration of 5 mg/kg or 20 mM/kg for canthin-6-one. The duration of the treatments is fixed at two weeks and the chosen route of administration is oral for benznidazole and canthin-6-one; furthermore, a group of mice is treated with canthin-6-one administered subcutaneously. The untreated and infected mice are given 100 μl of a phosphate buffered saline solution.
(§7) • weekly counting of the number of parasites circulating in the peripheral blood throughout the experiment, i.e. 10 weeks; • observation of mortality; • two serological evaluations: 40 days post-infection, i.e. 15 days after treatment has been stopped, and 68 days post-infection, i.e. 45 days post-treatment. The serological evaluation is carried out by means of a Chagas ELISA assay (enzyme linked immunoassay) kit, IISC, Asuncion. The optical densities are measured with an ELISA plate reader (Titerek, Unistan, I).
(§8) Statistical studies: The mean and the standard deviations of each group are calculated, the differences between the groups are determined by means of the Student's test and the Kruskal-Wallis non-parametric analysis of variance test. The comparisons are carried out between the nontreated group and the treated groups, P<0.05.

Test [3] concerns Trypanosoma cruzi. The test can be described thus: In vivo trial on Trypanosoma cruzi in the acute phase, Balb/c mice: serological evaluation (anti-T. cruzi ELISA). Conditions: 50 mg oral.
Excerpt: as §4, §5, §6, §7, §8

Test [4] relates to Trypanosoma cruzi. Kind of test: In vivo trial on Trypanosoma cruzi in the chronic phase, Balb/c mice: parasitemia and mortality. Conditions: 50 mg/kg/d orally for 20 days.
Excerpt: as §1
as §2, with “For this long-duration experiment, the treatments begin 120 days after parasitic infection, when the parasitemia is subpatent in all the mice.” left out
• Weekly counting of the number of parasites circulating in the peripheral blood throughout the experiment, i.e. 30 weeks. • Observation of mortality. • Three serological evaluations, 45 days before the beginning of treatments, 10 days after treatment has stopped and 75 days post-treatment. The serological evaluation is carried out using a Chagas ELISA assay (enzyme linked immunoassay) kit, IISC, Asuncion. The optical densities are measured with an ELISA plate reader (Titerek, Unistan, I). Statistical Studies:
as §3

As to `O=C(Cn1ccnc1[N+](=O)[O-])NCc1ccccc1` [Benznidazole, benznidazole, reference compound], the “ELISA (optical density ± standard deviation)” value is given as 1.712 ± 0.473 in the test with Trypanosoma cruzi [1] (10 d post-treatment), 2.072 ± 0.220 in the test with Trypanosoma cruzi [1] (43 days before treatment (baseline)) and 1.979 ± 0.350 in the test with Trypanosoma cruzi [1] (75 d post-treatment). Moreover, the “eradication of Trypanosoma cruzi from the infected organism, acute phase” value in the test with Trypanosoma cruzi [2] (50 mg/kg/d) is recorded as “does not make it possible to obtain”. In addition, the “number of parasites ± standard deviation” value with Trypanosoma cruzi [2] (day 4 post-infection (before treatment), two weeks from day 11) was determined as 0; with Trypanosoma cruzi [2] (day 11 post-infection (period of treatment)) it was 0; in the test with Trypanosoma cruzi [2] (day 18 post-infection (period of treatment)), 34.9 ± 98.6; with Trypanosoma cruzi [2] (day 25 post-infection (period of treatment)) it was 250.1 ± 503.5; with Trypanosoma cruzi [2] (day 32 post-infection, two weeks from day 11), 296.8 ± 625.5; with Trypanosoma cruzi [2] (day 39 post-infection, two weeks from day 11), 118.3 ± 192.9. Further, the “number of parasites ± standard deviation” value is given as 300.8 ± 431.6 with Trypanosoma cruzi [2] (day 45 post-infection, two weeks from day 11); 23.3 ± 65.8 with Trypanosoma cruzi [2] (day 53 post-infection, two weeks from day 11); 65.3 ± 93.2 in the test on Trypanosoma cruzi [2] (day 60 post-infection, two weeks from day 11); 9.4 ± 26.5 with Trypanosoma cruzi [2] (day 68 post-infection, two weeks from day 11). Further, the “1st serology (anti-T. cruzi ELISA, optical density)” value in the test with Trypanosoma cruzi [3] (40 days post-infection, 15 days post-treatment) is recorded as 0.1692 ± 0.1179. Moreover, in the test on Trypanosoma cruzi [3] (68 days post-infection, 45 days post-treatment), the “2nd serology (anti-T. cruzi ELISA, optical density)” value stood at 0.7934 ± 0.8607. Also, the “Negative parasitemia/number of surviving mice” value is 5/5 with Trypanosoma cruzi [4] (0 days post-treatment), 2/5 with Trypanosoma cruzi [4] (10 d post-treatment), 5/5 in the test on Trypanosoma cruzi [4] (40 d post-treatment) and 5/5 with Trypanosoma cruzi [4] (60 d post-treatment).
